Test results: patent publication US7297797B2, “Pyrrolines” (Bayer CropScience AG, priority 2002, dated 2007)
Like-named read-outs stand apart in the source and are kept apart here.

Experiments:
[1] = system: greenhouse red spider mite (Tetranychus urticae); assay: Tetranychus test (OP-resistant/dip treatment); assay type: in vivo; conditions: 168 h, 100 ppm active compound, infested bean plants (Phaseolus vulgaris) dipped, OP-resistant, after 7 d, read-out: Kill rate in % after 7 d
Method: Tetranychus Test (OP-Resistant/Dip Treatment)
• Solvent: 7 parts by weight of dimethylformamide • Emulsifier: 2 parts by weight of alkylaryl polyglycol ether
To produce a suitable preparation of active compound, 1 part by weight of active compound is mixed with the stated amounts of solvent and emulsifier, and the concentrate is diluted with emulsifier-containing water to the desired concentration.
Bean plants (Phaseolus vulgaris) which are heavily infested by all stages of the greenhouse red spider mite (Tetranychus urticae) are treated by being dipped into a preparation of active compound of the desired concentration.
After the desired period of time, the activity in % is determined. 100% means that all spider mites have been killed; 0% means that none of the spider mites have been killed.
In this test, for example, the following compounds of the preparation examples show good efficacy: […]

[2] = system: caterpillars of the army worm (Spodoptera frugiperda); assay: Spodoptera frugiperda test; assay type: in vivo; conditions: 168 h, 100 ppm active compound, cabbage leaves (Brassica oleracea) dipped, after 7 d, read-out: Kill rate in % after 7 d
Method: (§1) Spodoptera frugiperda Test • Solvent: 7 parts by weight of dimethylformamide • Emulsifier: 2 parts by weight of alkylaryl polyglycol ether To produce a suitable preparation of active compound, 1 part by weight of active compound is mixed with the stated amounts of solvent and emulsifier, and the concentrate is diluted with emulsifier-containing water to the desired concentration. Cabbage leaves (Brassica oleracea) are treated by being dipped into the preparation of active compound of the desired concentration and are populated with caterpillars of the army worm (Spodoptera frugiperda) while the leaves are still moist. After the desired period of time, the kill in % is determined. 100% means that all caterpillars have been killed; 0% means that none of the caterpillars have been killed. In this test, for example, the following compounds of the preparation examples show good activity: […]

[3] = system: larvae of the mustard beetle (Phaedon cochleariae); assay: Phaedon larvae test; assay type: in vivo; conditions: 168 h, 100 ppm active compound, cabbage leaves (Brassica oleracea) dipped, after 7 d, read-out: Kill rate in % after 7 d
Method: as §1, with “Phaedon Larvae Test” for “Spodoptera frugiperda Test”, “with larvae” for “with caterpillars”, “the mustard beetle (Phaedon cochleariae)” for “the army worm (Spodoptera frugiperda)”, “all beetle larvae” for “all caterpillars”, “the beetle larvae” for “the caterpillars”

[4] = system: caterpillars of the cotton bollworm (Heliothis armigera); assay: Heliothis armigera test; assay type: in vivo; conditions: Helicoverpa armigera, 168 h; 100 ppm active compound; soybean shoots (Glycine max) dipped; after 7 d; read-out: Kill rate in % after 7 d
Method: as §1, with “Heliothis armigera” for “Spodoptera frugiperda”, “Soybean shoots (Glycine max)” for “Cabbage leaves (Brassica oleracea)”, “cotton bollworm (Heliothis armigera)” for “army worm (Spodoptera frugiperda)”

[5] = log P determination by HPLC on reversed-phase column (EEC Directive 79/831 Annex V.A8); assay type: physicochemical
Method: The log P values given in the preparation examples and tables above are determined in accordance with EEC Directive 79/831 Annex V.A8 by HPLC (High Performance Liquid Chromatography) on a reversed-phase column (C 18). Temperature: 43° C. In the acidic range, determination is carried out at pH 2.3 using the mobile phases 0.1% aqueous phosphoric acid and acetonitrile; linear gradient from 10% acetonitrile to 90% acetonitrile (in the tables marked with a)). In the neutral range, determination is carried out at pH 7.5 using the mobile phases 0.01 molar aqueous phosphate buffer solution and acetonitrile; linear gradient from 10% acetonitrile to 90% acetonitrile (in the tables marked with b)). Calibration is carried out using unbranched alkan-2-ones (of 3 to 16 carbon atoms) with known lopP values (determination of the log P values by the retention times using linear interpolation between two successive alkanones).

[6] = system: caterpillars of the diamondback moth (Plutella xylostella); assay: Plutella test; assay type: in vivo; conditions: 100 ppm active compound, cabbage leaves (Brassica oleracea) dipped
Method: as §1, with “Plutella” for “Spodoptera frugiperda”, “diamondback moth (Plutella xylostella)” for “army worm (Spodoptera frugiperda)”

[7] = system: caterpillars of the army worm (Spodoptera exigua); assay: Spodoptera exigua test; assay type: in vivo; conditions: 100 ppm active compound, cabbage leaves (Brassica oleracea) dipped
Method: as §1, with “exigua” for “frugiperda”, “exigua)” for “frugiperda)”

[8] = reversed-phase C18 HPLC column; acidic range, pH 2.3, 0.1% aqueous phosphoric acid/acetonitrile, 43° C.; marked a) in tables, read-out: log P (pH 2.3)
[9] = reversed-phase C18 HPLC column; neutral range, pH 7.5, 0.01 molar aqueous phosphate buffer/acetonitrile, 43° C.; marked b) in tables, read-out: log P (pH 7.5)

Compound | chromatographic logP [5, 8] | chromatographic logP [5, 9] | pest or weed control at 100 ppm [1] [%] | pest or weed control at 100 ppm [2] [%] | pest or weed control at 100 ppm [3] [%] | pest or weed control at 100 ppm [4] [%] | Kill rate in % after 7 d [6] [%] | Kill rate in after 7 d [7] [%]
CCOC(=O)[C@H]1CC(c2c(F)cccc2F)=N[C@H]1c1ccc(-c2ccc(-c3nc(C(C)(C)C)no3)cc2)cc1 (racemic) [Example 10] | 5.39 |  |  | 100 | 100 | 100 |  | 
O=C(/C=C/c1ccc(Br)cc1F)c1c(F)cccc1F [(2E)-3-(4-bromo-2-fluorophenyl)-1-(2,6-difluoro-phenyl)-2-propen-1-one] | 4.18 |  |  |  |  |  |  | 
CCOc1ccc(-c2ccc(-c3ccc(C4CCC(c5c(F)cccc5F)=N4)cc3)cc2)s1 (centres unmarked) [Example 1, 5-(2,6-difluorophenyl)-2-[4′-(5-ethoxy-2-thienyl)-1,1′-biphenyl-4-yl]-3,4-dihydro-2H-pyrrole] | 4.88 | 5.84 | 95 | 100 | 100 | 100 | 100 | 
CC(C)Oc1ccc(-c2ccc(-c3ccc(C4CCC(c5c(F)cccc5F)=N4)cc3)cc2)s1 (centres unmarked) [Example 3, 5-(2,6-difluorophenyl)-2-[4′-(5-isopropoxy-2-thienyl)-1,1′-biphenyl-4-yl]-3,4-dihydro-2H-pyrrole] | 5.2 |  |  | 100 | 100 | 100 |  | 
Cc1ccccc1C1=NC(c2ccc(-c3ccc(-c4noc(C(F)(F)F)n4)cc3)cc2)CC1 (centres unmarked) [Example 4, 3-{4′-[5-(2-methylphenyl)-3,4-dihydro-2H-pyrrol-2-yl]-1,1′-biphenyl-4-yl}-5-(trifluoromethyl)-1,2,4-oxadiazole] | 3.32 |  | 95 | 100 | 100 | 100 |  | 
CC(C)(C)c1noc(-c2ccc(-c3ccc(C4CCC(c5c(F)cccc5F)=N4)c(F)c3)cc2)n1 (centres unmarked) [Example 5, 3-tert-butyl-5-{4′-[5-(2,6-difluorophenyl)-3,4-dihydro-2H-pyrrol-2-yl]-3′-fluoro-1,1′-biphenyl-4-yl}-1,2,4-oxadiazole] | 5.79 | 6.06 | 98 | 100 | 100 | 100 | 100 | 100
Cc1ccccc1C1=NC(c2ccc(-c3ccc(-c4noc(C(C)(C)C)n4)cc3)cc2)CC1 (centres unmarked) [Example 11] | 3.99 |  | 98 | 100 | 100 | 100 |  | 
N#Cc1cnn(-c2ccc(-c3ccc(C4CCC(c5c(F)cccc5F)=N4)cc3)cc2)c1 (centres unmarked) [Example 18] | 3.02 | 4.03 | 90 | 100 | 100 |  |  | 
Cc1nc(-c2ccc(-c3ccc(C4CCC(c5c(F)cccc5F)=N4)cc3)cc2)cs1 (centres unmarked) [Example 22] | 3.35 | 4.68 | 90 | 100 |  | 100 | 100 | 
Cc1ccccc1C1=NC(c2ccc(B3OC(C)(C)C(C)(C)O3)cc2)CC1 (centres unmarked) [II-1, 5-(2-methylphenyl)-2-[4-(4,4,5,5-tetramethyl-1,3,2-dioxaborolan-2-yl)phenyl]-3,4-dihydro-2H-pyrrole] | 2.25 | 4.98 |  |  |  |  |  | 
CC(=O)NC(CCC(=O)c1c(F)cccc1F)c1ccc(Br)cc1F (centres unmarked) [N-[1-(4-bromo-2-fluorophenyl)-4-(2,6-difluorophenyl)-4-oxobutyl]acetamide] | 2.74 |  |  |  |  |  |  | 
CC(=O)NC(CCC(=O)c1ccccc1C)c1ccc(Br)cc1 (centres unmarked) [N-[1-(4-bromophenyl)-4-(2-methylphenyl)-4-oxobutyl]acetamnide] | 3.33 |  |  |  |  |  |  | 

Continued, in another order:

chromatographic logP [5, 8] | chromatographic logP [5, 9] | Compound | pest or weed control at 100 ppm [1] [%] | pest or weed control at 100 ppm [2] [%] | pest or weed control at 100 ppm [3] [%] | pest or weed control at 100 ppm [4] [%] | Kill rate in % after 7 d [6] [%] | Kill rate in after 7 d [7] [%]
5.18 |  | CCOC(=O)[C@H]1CC(c2c(F)cccc2F)=N[C@H]1c1ccc(-c2ccc(-c3noc(C(F)(F)F)n3)cc2)cc1 (racemic) [Example 8] | 95 | 100 | 100 | 100 |  | 
5.29 |  | CCOC(=O)[C@H]1CC(c2c(F)cccc2F)=N[C@H]1c1ccc(-c2ccc(-c3noc(C(C)(C)C)n3)cc2)cc1 (racemic) [Example 9] |  | 100 | 100 | 100 |  | 
1.82 | 4.48 | Cc1ccccc1C1=NC(c2ccc(Br)cc2)CC1 (centres unmarked) [2-(4-bromophenyl)-5-(2-methylphenyl)-3,4-dihydro-2H-pyrrole] |  |  |  |  |  | 
4.35 |  | COc1ccc(-c2ccc(-c3ccc(C4CCC(c5c(F)cccc5F)=N4)cc3)cc2)s1 (centres unmarked) [Example 2, 5-(2,6-difluorophenyl)-2-[4′-(5-methoxy-2-thienyl)-1,1′-biphenyl-4-yl]-3,4-dihydro-2H-pyrrole] |  | 100 | 100 | 100 |  | 
4.18 |  | Cc1ccccc1C1=NC(c2ccc(-c3ccc(-c4nc(C(C)(C)C)no4)cc3)cc2)CC1 (centres unmarked) [Example 12] | 98 | 100 | 100 | 100 |  | 
4.88 |  | CC1(C)OB(c2ccc(C3CCC(c4c(F)cccc4F)=N3)c(F)c2)OC1(C)C (centres unmarked) [II-2, 5-(2,6-difluorophenyl)-2-[2-fluoro-4-(4,4,5,5-tetramethyl-1,3,2-dioxaborolan-2-yl)phenyl]-3,4-dihydro-2H-pyrrole] |  |  |  |  |  | 
4.31 |  | O=C(c1c(F)cccc1F)C1CC1c1ccc(Br)cc1F (centres unmarked) [[2-(4-bromo-2-fluorophenyl)cyclopropyl](2,6-difluorophenyl)methanone] |  |  |  |  |  | 
